Laboratory results from the NIST ThermoML archive (doi:10.1016/j.jct.2005.03.006).

Conditions: Liquid, Buoyancy - hydrostatic balance

CCc1ccccc1 [ethylbenzene]
mass density [kg/m3]
Conditions	292.25 K	313.45 K	336.55 K	358.81 K	382.95 K	408.05 K	434.45 K	461.85 K	490.15 K
100 kPa	867	849.1	828.7	808.4	–	–	–	–	–
5000 kPa	870.8	853.1	833.6	814.5	793	770.4	746	718.6	687
9900 kPa	874	–	838.5	820	799	777.3	754.4	728.8	700
19700 kPa	881.3	864.4	845.8	827.6	808.1	788.5	768.1	746.2	720.9
29500 kPa	887.1	871.4	854	836.8	818.2	799.7	780.5	760	737.2
39300 kPa	893	877.6	860.9	844.8	827.1	809.5	791	771.7	750.7
49100 kPa	898.5	883.6	867.8	852.4	835.1	817.9	800.4	782.3	762.9
58900 kPa	903.8	889.4	873.6	858.6	842.5	826	808.6	791	773.2

CO [methanol]
mass density [kg/m3]
Conditions	298.15 K	323.15 K	348.15 K	373.15 K	398.15 K	423.15 K	448.15 K	473.15 K	498.15 K
100 kPa	792.6	770.3	–	–	–	–	–	–	–
5000 kPa	796.2	774.2	748.9	721.1	690	652.8	610.4	553.4	–
9900 kPa	801	778.2	753.9	727.7	697.6	665.2	628.9	585	525
19700 kPa	808.4	787	764.1	739.3	712.8	683.6	652.4	620.2	584.8
29500 kPa	816	795	773.1	750.4	725.4	698.8	670.8	642	613.4
39300 kPa	823.8	803.4	782.6	760.2	736	710.8	685.6	660.6	636
49100 kPa	830	811	790.9	769.6	747.2	723.9	700	677.2	655
58900 kPa	836.3	818.2	798.9	778.2	757	735	713	691.2	670
